Data as given in the supplement of paper PMC10307832.

Assays:
Test in all cases: relative viability (nuclei count vs DMSO), 5 days (fraction); higher = more cells survive
Ricolinostat = compound: O=C(CCCCCCNC(=O)c1cnc(N(c2ccccc2)c2ccccc2)nc1)NO [Ricolinostat]
Method in brief: (§1)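 Five library-drug doses, separated by factors of √10, were pinned into 1536-well plates holding lung cancer cell lines after an overnight stay at 37 °C. Cells were fixed, permeabilised and Hoechst-stained in one step after 5 days without medium change, then imaged at 4×. Viability compares treated-well with vehicle-well nuclei, counted in MetaXpress, as a median across plates. Passing plates had control CV below 25% and at least one doubling.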

TGX 221 = compound: CC1=CN2C(=O)C=C(N=C2C(=C1)C(C)NC3=CC=CC=C3)N4CCOCC4 [TGX 221]
Method in brief: as §1

[1] = compound: C1=CC=C(C(=C1)C2=CC=C(C=C2)C3=CSC4=C3C(=C(C(=O)N4)C#N)O)O
Method in brief: as §1

[2] = compound: C1=CC=C(C(=C1)C2=CC=C(C=C2)C3=CSC4=C3C(=C(C(=O)N4)C#N)O)O + CC(=O)Nc1cccc(-n2c(=O)n(C3CC3)c(=O)c3c(Nc4ccc(I)cc4F)n(C)c(=O)c(C)c32)c1 [Trametinib] (partner 0.02 µM)
Method in brief: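 Lung cancer cell lines were seeded in 1536-well plates and dosed by pin tool the next day, with either a single drug or a fixed anchor-drug dose combined with five library-drug doses (not always all listed) spaced in √10 steps. Five days later, one step fixed the cells and stained their nuclei (final 0.05% Triton X-100, 1% formaldehyde, 1 ug/ml Hoechst), and nuclei were counted on 4× images. Relative viability is the nuclei count in treated wells divided by the count in vehicle wells, and each value is the median of duplicate plates.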

Cell Line | relative viability (Ricolinostat; 0.08 µM) | relative viability (Ricolinostat; 0.253 µM) | relative viability (Ricolinostat; 0.8 µM) | relative viability (Ricolinostat; 2.53 µM) | relative viability (TGX 221; 0.08 µM) | relative viability (TGX 221; 0.253 µM) | relative viability (TGX 221; 0.8 µM) | relative viability (TGX 221; 2.53 µM) | relative viability (TGX 221; 8 µM) | relative viability ([1]; 0.08 µM) | relative viability ([1]; 0.253 µM) | relative viability ([1]; 0.8 µM) | relative viability ([1]; 2.53 µM) | relative viability ([1]; 8 µM) | relative viability ([2]; first compound 0.08 µM) | relative viability ([2]; first compound 0.253 µM) | relative viability ([2]; first compound 0.8 µM) | relative viability ([2]; first compound 2.53 µM) | relative viability ([2]; first compound 8 µM)
NCI-H3122 | 0.94 | 1.01 | 0.992 | 1.07 | 1 | 0.985 | 1.02 | 0.969 | 1.01 | 0.974 | 1.03 | 1.03 | 1.08 | 0.843 | 0.289 | 0.233 | 0.223 | 0.253 | 0.295
PC-3 [JPC-3] | 0.801 | 0.977 | 1.01 | 0.883 | 0.971 | 1.05 | 1.04 | 0.998 | 1.03 | 0.898 | 1.11 | 0.959 | 1.08 | 0.944 | 0.756 | 0.789 | 0.683 | 0.701 | 0.692
PC-14 | 0.932 | 0.927 | 0.902 | 0.798 | 0.913 | 0.953 | 0.983 | 1.02 | 0.907 | 0.844 | 1.24 | 0.952 | 1.09 | 0.806 | 0.758 | 0.925 | 0.912 | 0.792 | 0.623
RERF-LC-KJ | 0.955 | 1.02 | 0.984 | 0.814 | 0.895 | 0.933 | 0.964 | 0.917 | 0.938 | 1.07 | 1.07 | 0.987 | 1.01 | 0.8 | 0.988 | 0.908 | 0.917 | 0.878 | 0.834
SK-LU-1 | 0.939 | 0.981 | 0.995 | 0.72 | 0.954 | 0.964 | 0.963 | 0.932 | 0.876 | 1.11 | 0.96 | 0.994 | 1.16 | 0.81 | 0.412 | 0.408 | 0.505 | 0.476 | 0.426
SK-MES-1 | 0.824 | 0.979 | 0.983 | 0.979 | 1.01 | 0.958 | 0.941 | 0.75 | 0.67 | 1.01 | 1.06 | 1.01 | 1.04 | 0.819 | 0.588 | 0.625 | 0.582 | 0.554 | 0.551
SW 900 | 0.591 | 0.832 | 0.647 | 0.74 | 0.839 | 0.938 | 0.742 | 0.608 | 0.601 | 0.81 | 1.22 | 0.809 | 0.773 | 0.56 | – | 1.06 | 0.947 | 0.762 | 0.646
SW 1573 | 0.936 | 1.07 | 0.896 | 1.02 | 0.895 | 0.876 | 0.961 | 0.906 | 0.902 | 1.06 | 1.17 | 1.01 | 1.03 | 0.738 | 0.608 | 0.522 | 0.654 | 0.659 | 0.434
UMC-11 | 0.889 | 0.945 | 0.866 | 0.464 | 0.957 | 0.91 | 1 | 0.976 | 1.08 | 0.793 | 0.892 | 1.07 | 0.921 | 0.813 | – | 0.649 | 0.695 | 0.658 | 0.551
